The results in this text go back to patent publication US20210138025A1, “CATIONIC PEPTIDES WITH IMMUNOMODULATORY AND/OR ANTI-BIOFILM ACTIVITIES” (priority 2018, published 2021).

One assay relates to IL-1β. Briefly: Suppression of LPS-induced IL-1β production in human PBMCs, ELISA (Tables 6, 7; FIGS. 6-9, 13). The following applies: SPOT synthesized control peptides, determined as in Table 6; Table 7. (In an ELISA, binding on a coated surface is turned into a signal by an enzyme label.)
Another assay relates to S. aureus (MRSA SAP0017). In kind it is cell-based, Staphylococcus aureus. The following applies: SPOT synthesized control peptides, determined as in Table 5; Table 7. In a few lines:
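Static biofilm assay: 1/100 dilutions of overnight cultures grown with peptide at varying concentrations, added at time zero, in BM2 biofilm medium or tryptic soy broth plus 1% glucose in polypropylene plates. After 22-46 h, adherent biofilm stained with crystal violet and absorbance read at 595 nm.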

The next assay relates to MCP-1. The experiment in a line: MCP-1 chemokine induction in human PBMCs, ELISA (Tables 6, 7; FIGS. 6-9, 13). Particulars: SPOT synthesized control peptides, determined as in Table 6; Table 7. The format is cell-based. As for the experimental part: Venous blood (20 ml) from healthy volunteers was collected in Vacutainer® collection tubes containing sodium heparin as an anticoagulant (Becton Dickinson, Mississauga, ON) in accordance with UBC ethical approval and guidelines. Blood was diluted 1:1 with complete RPMI 1640 medium and separated by centrifugation over a Ficoll-Paque® Plus (Amersham Biosciences, Piscataway, N.J., USA) density gradient. White blood cells were isolated from the buffy coat, washed twice in PBS and then resuspended in RPMI 1640 complete medium (containing 10% fetal bovine serum), and the number of peripheral blood mononuclear cells (PBMC) was determined by Trypan blue exclusion. PBMCs (5×10^5) were seeded into 12-well tissue culture dishes (Falcon; Becton Dickinson) at 0.75-1×10^6 cells/ml at 37° C. in 5% CO2. The above conditions were chosen to mimic conditions for circulating blood monocytes entering tissues at the site of infection via extravasation.
Following incubation of the cells under various treatment regimens, the tissue culture supernatants were centrifuged at 1000×g for 5 min, then at 10,000×g for 2 min to obtain cell-free samples. Supernatants were aliquoted and then stored at −20° C. prior to assay for various chemokines by capture ELISA (eBioscience and BioSource International Inc., CA, USA respectively)

C24 (LKILIAQAKKGL) [Peptide C24]: in the assay with IL-1β, the “Fold Change in IL1-β relative to untreated LPS-stimulated cells” value is listed as 1.4. Moreover, the “% Biofilm Inhibition” value in the assay with S. aureus (MRSA SAP0017) was found to be 101%. Moreover, in the assay on MCP-1, the “MCPI production in PBMC” value stood at 1280 pg/mL.

Turning to C25 (IGQVVLVKIKIA) [Peptide C25], the “Fold Change in IL1-β relative to untreated LPS-stimulated cells” value with IL-1β turned out to be 1.21. Also, the “% Biofilm Inhibition” value with S. aureus (MRSA SAP0017) came to 98%. Besides, the “MCPI production in PBMC” value in the assay with MCP-1 was found to be 1762 pg/mL.

As for C26 (VWLAQKIGKWIW) [Peptide C26], the “Fold Change in IL1-β relative to untreated LPS-stimulated cells” value in the assay on IL-1β is listed as 1.41. In the assay with S. aureus (MRSA SAP0017), the “% Biofilm Inhibition” value stood at 100%. The “MCPI production in PBMC” value in the assay on MCP-1 is 1153 pg/mL.

For C27 (KKAIKVVAIGRI) [Peptide C27], the “Fold Change in IL1-β relative to untreated LPS-stimulated cells” value in the assay with IL-1β amounted to 1.06. Besides, in the assay with S. aureus (MRSA SAP0017), the “% Biofilm Inhibition” value is on record as 102%. Also, in the assay on MCP-1, the “MCPI production in PBMC” value is 50 pg/mL.

On to C28 (WIIRWIKIWLKI) [Peptide C28], for which the “Fold Change in IL1-β relative to untreated LPS-stimulated cells” value with IL-1β was determined as 0.88. The “% Biofilm Inhibition” value in the assay on S. aureus (MRSA SAP0017) stood at 72%. Further, in the assay with MCP-1, the “MCPI production in PBMC” value came out at 444 pg/mL.

On to C29 (VIAKIVLLRAGL) [Peptide C29], for which the “Fold Change in IL1-β relative to untreated LPS-stimulated cells” value in the assay on IL-1β is listed as 0.99. The “% Biofilm Inhibition” value in the assay with S. aureus (MRSA SAP0017) worked out at 100%. Besides, in the assay on MCP-1, the “MCPI production in PBMC” value came to 1809 pg/mL.

C30 (RGARVIRWKLRR) [Peptide C30]: in the assay on IL-1β, the “Fold Change in IL1-β relative to untreated LPS-stimulated cells” value amounted to 1.23. Moreover, the “% Biofilm Inhibition” value in the assay on S. aureus (MRSA SAP0017) amounted to 100%. In addition, the “MCPI production in PBMC” value with MCP-1 stood at 1153 pg/mL.

For C31 (RAIIKQRWQRRW) [Peptide C31], the “Fold Change in IL1-β relative to untreated LPS-stimulated cells” value in the assay on IL-1β was determined as 1.09. Further, the “% Biofilm Inhibition” value with S. aureus (MRSA SAP0017) stood at 103%. For the same substance, the “MCPI production in PBMC” value in the assay with MCP-1 worked out at 1649 pg/mL.

For the substance C32 (QRWKKWKVLKLR) [Peptide C32], the “Fold Change in IL1-β relative to untreated LPS-stimulated cells” value in the assay on IL-1β was 1.11. In the assay with S. aureus (MRSA SAP0017), the “% Biofilm Inhibition” value is given as 102%. Moreover, the “MCPI production in PBMC” value in the assay with MCP-1 was 1614 pg/mL.

In the case of C33 (KIWLLKLRQRQK) [Peptide C33], the “Fold Change in IL1-β relative to untreated LPS-stimulated cells” value with IL-1β is given as 1.23. Moreover, in the assay on S. aureus (MRSA SAP0017), the “% Biofilm Inhibition” value was determined as 102%. For the same substance, the “MCPI production in PBMC” value with MCP-1 was determined as 1685 pg/mL.

With C34 (WRIKKQWIQIIV) [Peptide C34], the “Fold Change in IL1-β relative to untreated LPS-stimulated cells” value with IL-1β came to 1.13. Further, the “% Biofilm Inhibition” value in the assay on S. aureus (MRSA SAP0017) was found to be 99%. In addition, in the assay on MCP-1, the “MCPI production in PBMC” value came out at 217 pg/mL.

With C35 (IILKRVQVQKIK) [Peptide C35], in the assay on IL-1β, the “Fold Change in IL1-β relative to untreated LPS-stimulated cells” value is 1.1. Besides, the “% Biofilm Inhibition” value with S. aureus (MRSA SAP0017) turned out to be 101%. The “MCPI production in PBMC” value with MCP-1 is 481 pg/mL.

For C36 (KRIKKLLKVVLK) [Peptide C36], the “Fold Change in IL1-β relative to untreated LPS-stimulated cells” value in the assay with IL-1β came out at 0.92. For the same substance, in the assay on S. aureus (MRSA SAP0017), the “% Biofilm Inhibition” value is 100%. In the assay with MCP-1, the “MCPI production in PBMC” value stood at 719 pg/mL.

As to C37 (QQKVIRLLWKAK) [Peptide C37], the “Fold Change in IL1-β relative to untreated LPS-stimulated cells” value in the assay on IL-1β was found to be 0.83. Also, the “% Biofilm Inhibition” value in the assay on S. aureus (MRSA SAP0017) was determined as 102%. Further, the “MCPI production in PBMC” value in the assay with MCP-1 was 216 pg/mL.

With C38 (RIWRRAWKARWK) [Peptide C38], in the assay on IL-1β, the “Fold Change in IL1-β relative to untreated LPS-stimulated cells” value is given as 1.06. For the same substance, in the assay on S. aureus (MRSA SAP0017), the “% Biofilm Inhibition” value worked out at 102%. In addition, in the assay on MCP-1, the “MCPI production in PBMC” value came out at 251 pg/mL.

Take C39 (KIKLIQKQLRIK) [Peptide C39]: in the assay on IL-1β, the “Fold Change in IL1-β relative to untreated LPS-stimulated cells” value came out at 0.84. Further, the “% Biofilm Inhibition” value in the assay on S. aureus (MRSA SAP0017) turned out to be 98%. Besides, in the assay on MCP-1, the “MCPI production in PBMC” value came to 286 pg/mL.

Regarding C40 (ALLAGRKRAVAV) [Peptide C40], in the assay on IL-1β, the “Fold Change in IL1-β relative to untreated LPS-stimulated cells” value worked out at 0.89. Besides, the “% Biofilm Inhibition” value with S. aureus (MRSA SAP0017) amounted to 102%. The “MCPI production in PBMC” value in the assay on MCP-1 is 39 pg/mL.

Take C41 (KAVAGARQRWAL) [Peptide C41]: the “Fold Change in IL1-β relative to untreated LPS-stimulated cells” value in the assay with IL-1β was 0.82. Moreover, in the assay with S. aureus (MRSA SAP0017), the “% Biofilm Inhibition” value stood at 101%. In addition, the “MCPI production in PBMC” value with MCP-1 was 353 pg/mL.

As to C42 (AIGAARAWRQWA) [Peptide C42], the “Fold Change in IL1-β relative to untreated LPS-stimulated cells” value in the assay with IL-1β was determined as 0.85. In addition, in the assay on S. aureus (MRSA SAP0017), the “% Biofilm Inhibition” value amounted to 102%. In the assay with MCP-1, the “MCPI production in PBMC” value turned out to be 114 pg/mL.
